Assay results as given in PubChem BioAssay AID1259407 (Chemical Carcinogenesis Research Information System (CCRIS), 2018).
Active and inactive are the calls of the source. How the calls were made is not given here.

Tested on: CCRIS mutagenicity, Ames/micronucleus/aberration tests
Test: CCRIS mutagenicity studies
[1] = Test System: AMES SALMONELLA TYPHIMURIUM, Strain/Indicator: TA98, Metabolic Activation: NONE, Method: PREINCUBATION
[2] = Test System: AMES SALMONELLA TYPHIMURIUM, Strain/Indicator: TA100, Metabolic Activation: NONE, Method: PREINCUBATION
[3] = Test System: AMES SALMONELLA TYPHIMURIUM, Strain/Indicator: TA1535, Metabolic Activation: NONE, Method: PREINCUBATION
[4] = Test System: AMES SALMONELLA TYPHIMURIUM, Strain/Indicator: TA1537, Metabolic Activation: NONE, Method: PREINCUBATION
[5] = Test System: AMES SALMONELLA TYPHIMURIUM, Strain/Indicator: TA1538, Metabolic Activation: NONE, Method: PREINCUBATION

SMILES: O=C1C=C(O)c2ccccc2C1=O
- mutagenic call (Test System: AMES SALMONELLA TYPHIMURIUM, Strain/Indicator: TA98, Metabolic Activation: HAMSTER, LIVER, S-9, AROCLOR 1254 (10%), Method: PREINCUBATION): inactive; negative
- mutagenic call [1]: inactive; negative
- mutagenic call (Test System: AMES SALMONELLA TYPHIMURIUM, Strain/Indicator: TA98, Metabolic Activation: RAT, LIVER, S-9, AROCLOR 1254 (10%), Method: PREINCUBATION): inactive; negative
- mutagenic call (Test System: AMES SALMONELLA TYPHIMURIUM, Strain/Indicator: TA98, Metabolic Activation: RAT, LIVER, S-9, PHENOBARBITAL AND 5,6-BENZOFLAVONE, Method: PREINCUBATION): inactive; negative
- mutagenic call (Test System: AMES SALMONELLA TYPHIMURIUM, Strain/Indicator: TA100, Metabolic Activation: HAMSTER, LIVER, S-9, AROCLOR 1254 (10%), Method: PREINCUBATION): inactive; negative
- mutagenic call [2]: inactive; negative
- mutagenic call (Test System: AMES SALMONELLA TYPHIMURIUM, Strain/Indicator: TA100, Metabolic Activation: RAT, LIVER, S-9, AROCLOR 1254 (10%), Method: PREINCUBATION): inactive; negative
- mutagenic call (Test System: AMES SALMONELLA TYPHIMURIUM, Strain/Indicator: TA100, Metabolic Activation: RAT, LIVER, S-9, PHENOBARBITAL AND 5,6-BENZOFLAVONE, Method: PREINCUBATION): inactive; negative
- mutagenic call (Test System: AMES SALMONELLA TYPHIMURIUM, Strain/Indicator: TA102, Metabolic Activation: NONE, Method: PREINCUBATION): inactive; negative
- mutagenic call (Test System: AMES SALMONELLA TYPHIMURIUM, Strain/Indicator: TA102, Metabolic Activation: RAT, LIVER, S-9, PHENOBARBITAL AND 5,6-BENZOFLAVONE, Method: PREINCUBATION): inactive; negative
- mutagenic call (Test System: AMES SALMONELLA TYPHIMURIUM, Strain/Indicator: TA104, Metabolic Activation: NONE, Method: PREINCUBATION): inactive; negative
- mutagenic call (Test System: AMES SALMONELLA TYPHIMURIUM, Strain/Indicator: TA104, Metabolic Activation: RAT, LIVER, S-9, PHENOBARBITAL AND 5,6-BENZOFLAVONE, Method: PREINCUBATION): inactive; negative
- mutagenic call (Test System: AMES SALMONELLA TYPHIMURIUM, Strain/Indicator: TA1535, Metabolic Activation: HAMSTER, LIVER, S-9, AROCLOR 1254 (10%), Method: PREINCUBATION): inactive; negative
- mutagenic call [3]: inactive; negative
- mutagenic call (Test System: AMES SALMONELLA TYPHIMURIUM, Strain/Indicator: TA1535, Metabolic Activation: RAT, LIVER, S-9, AROCLOR 1254 (10%), Method: PREINCUBATION): inactive; negative
- mutagenic call (Test System: AMES SALMONELLA TYPHIMURIUM, Strain/Indicator: TA1535, Metabolic Activation: RAT, LIVER, S-9, PHENOBARBITAL AND 5,6-BENZOFLAVONE, Method: PREINCUBATION): inactive; negative
- mutagenic call (Test System: AMES SALMONELLA TYPHIMURIUM, Strain/Indicator: TA1537, Metabolic Activation: HAMSTER, LIVER, S-9, AROCLOR 1254 (10%), Method: PREINCUBATION): inactive; negative
- mutagenic call [4]: inactive; negative
- mutagenic call (Test System: AMES SALMONELLA TYPHIMURIUM, Strain/Indicator: TA1537, Metabolic Activation: RAT, LIVER, S-9, AROCLOR 1254 (10%), Method: PREINCUBATION): active; positive
- mutagenic call (Test System: AMES SALMONELLA TYPHIMURIUM, Strain/Indicator: TA1537, Metabolic Activation: RAT, LIVER, S-9, PHENOBARBITAL AND 5,6-BENZOFLAVONE, Method: PREINCUBATION): inactive; negative
- mutagenic call [5]: inactive; negative
- mutagenic call (Test System: AMES SALMONELLA TYPHIMURIUM, Strain/Indicator: TA1538, Metabolic Activation: RAT, LIVER, S-9, PHENOBARBITAL AND 5,6-BENZOFLAVONE, Method: PREINCUBATION): inactive; negative
- mutagenic call (Test System: AMES SALMONELLA TYPHIMURIUM, Strain/Indicator: TA2637, Metabolic Activation: NONE, Method: PREINCUBATION): inactive; negative
- mutagenic call (Test System: AMES SALMONELLA TYPHIMURIUM, Strain/Indicator: TA2637, Metabolic Activation: RAT, LIVER, S-9, PHENOBARBITAL AND 5,6-BENZOFLAVONE, Method: PREINCUBATION): inactive; negative

SMILES: O=S(=O)(O)c1cc(S(=O)(=O)O)c2cc(O)ccc2c1
- mutagenic call [1]: inactive; negative
- mutagenic call (Test System: AMES SALMONELLA TYPHIMURIUM, Strain/Indicator: TA98, Metabolic Activation: RAT LIVER S-9, PHENOBARBITAL AND BETA-NAPHTHOFLAVONE, Method: PREINCUBATION): inactive; negative
- mutagenic call (Test System: AMES SALMONELLA TYPHIMURIUM, Strain/Indicator: TA98, Metabolic Activation: RAT, LIVER, S-9, PHENOBARBITAL, Method: PREINCUBATION): inactive; negative
- mutagenic call [2]: inactive; negative
- mutagenic call (Test System: AMES SALMONELLA TYPHIMURIUM, Strain/Indicator: TA100, Metabolic Activation: RAT LIVER S-9, PHENOBARBITAL AND BETA-NAPHTHOFLAVONE, Method: PREINCUBATION): inactive; negative
- mutagenic call (Test System: AMES SALMONELLA TYPHIMURIUM, Strain/Indicator: TA100, Metabolic Activation: RAT, LIVER, S-9, PHENOBARBITAL, Method: PREINCUBATION): inactive; negative
- mutagenic call [3]: inactive; negative
- mutagenic call (Test System: AMES SALMONELLA TYPHIMURIUM, Strain/Indicator: TA1535, Metabolic Activation: RAT LIVER S-9, PHENOBARBITAL AND BETA-NAPHTHOFLAVONE, Method: PREINCUBATION): inactive; negative
- mutagenic call [4]: inactive; negative
- mutagenic call (Test System: AMES SALMONELLA TYPHIMURIUM, Strain/Indicator: TA1537, Metabolic Activation: RAT LIVER S-9, PHENOBARBITAL AND BETA-NAPHTHOFLAVONE, Method: PREINCUBATION): inactive; negative
- mutagenic call [5]: inactive; negative
- mutagenic call (Test System: AMES SALMONELLA TYPHIMURIUM, Strain/Indicator: TA1538, Metabolic Activation: RAT LIVER S-9, PHENOBARBITAL AND BETA-NAPHTHOFLAVONE, Method: PREINCUBATION): inactive; negative
- mutagenic call (Test System: E.COLI, Strain/Indicator: WP2UVRA, Metabolic Activation: NONE, Method: PREINCUBATION): inactive; negative
- mutagenic call (Test System: E.COLI, Strain/Indicator: WP2UVRA, Metabolic Activation: RAT LIVER S-9, PHENOBARBITAL AND BETA-NAPHTHOFLAVONE, Method: PREINCUBATION): inactive; negative

SMILES: O=[N+]([O-])c1ccc2c(c1)Cc1cccc(O)c1-2
- mutagenic call [1]: active; positive
- mutagenic call (Test System: AMES SALMONELLA TYPHIMURIUM, Strain/Indicator: TA98, Metabolic Activation: S-9, Method: PREINCUBATION): active; positive

SMILES: C=C(Br)C(C)=O
- mutagenic call (Test System: AMES SALMONELLA TYPHIMURIUM, Strain/Indicator: TA100, Metabolic Activation: NONE, Method: STANDARD PLATE): active; positive

SMILES: CCCC(=O)OCc1cccc([N+](=O)[O-])c1
- mutagenic call [1]: inactive; negative
- mutagenic call [2]: inactive; negative
- mutagenic call (Test System: AMES SALMONELLA TYPHIMURIUM, Strain/Indicator: TA100, Metabolic Activation: RAT, LIVER, S-9, AROCLOR 1254, Method: PREINCUBATION): inactive; negative

SMILES: Nc1ccc(Cc2ccc(N)c(C(=O)O)c2)cc1C(=O)O
- mutagenic call [1]: inactive; negative
- mutagenic call (Test System: AMES SALMONELLA TYPHIMURIUM, Strain/Indicator: TA98, Metabolic Activation: RAT, LIVER, S-9, PCB, Method: PREINCUBATION): inactive; negative
- mutagenic call [2]: inactive; negative
- mutagenic call (Test System: AMES SALMONELLA TYPHIMURIUM, Strain/Indicator: TA100, Metabolic Activation: RAT, LIVER, S-9, PCB, Method: PREINCUBATION): inactive; negative
